Assay type in all cases: cell-based
Conditions in all cases: solo product

Test [1] concerns Alternaria solani. The experiment in a line: Microtest against early blight caused by Alternaria solani (Alteso).
Test [2] relates to Leptosphaeria nodorum. The experiment in a line: Microtest against wheat leaf spots caused by Leptosphaeria nodorum (Leptno).
Test [3] relates to Botrytis cinerea. Nature of the test: Microtiterplate test against the grey mold Botrytis cinerea (Botrci).
Test [4] deals with Septoria tritici. Nature of the test: Microtest against leaf blotch on wheat caused by Septoria tritici (Septtr).
Test [5] relates to Pyricularia oryzae. Nature of the test: microbe, parasite or virus in culture.
Test [6] concerns Phytophthora infestans. Nature of the test: microbe, parasite or virus in culture.

The results in this text go back to US20150313225A1.

As for `C[N+]1(C)CCCCC1.[Cl-]` [Mepiquat-cl], the Observed efficacy in test [1] (16 ppm) came out at 10; in test [1] (63 ppm), 16; in test [2] (63 ppm), 28; in test [3] (16 ppm), 11; in test [4] (63 ppm), 16; in test [5] (1 ppm) it was 2. The figures for the Observed efficacy in test [5] (4 ppm), in test [5] (16 ppm) and in test [6] (4 ppm) were 1, 4 and 5, respectively.

As to `OC(Cc1ccccc1Cl)(Cn1nc[nH]c1=S)C1(Cl)CC1` (stereo not shown) [Prothioconazol], the Observed efficacy worked out at 66 in test [1] (1 ppm); 43 in test [2] (1 ppm); 36 in test [3] (1 ppm); 72 in test [3] (4 ppm); 17 in test [4] (0.016 ppm); 13 in test [5] (1 ppm). In addition, the Observed efficacy was determined as 23 in test [5] (4 ppm), 4 in test [6] (1 ppm), 12 in test [6] (4 ppm) and 35 in test [6] (16 ppm).
